According to article PMC10590383, “Repurposing conformational changes in ANL superfamily enzymes to rapidly generate biosensors for organic and amino acids” (Nature Communications, 2023):

Test: Dose–response curve of purified […]s with histidine
Type: biochemical
Set-up: key to Dose-response, AVE of Repeat 1-3 (Fig. 3 k): normalized ΔF/F0 (fluorescence change over baseline)
Protocol: Fig. 3 Dose–response curves and fluorescence spectrums of […]s. a, c, e, g, i, k Dose–response curve of purified […]s with increasing concentrations of ligand in 100 mM Tris-HCl buffer (pH=7.5). The normalized ΔF/F0 value increased after ligand binding. All data shown are mean ± S.D. (n = 3 biologically independent samples). b, d, f, h, j, l The fluorescence spectra of […]s changed as the ligand concentration increased. All data shown are mean ± S.D. (n = 3 biologically independent samples). Source data are provided as a Source data file.
The study conducted dose–response curve, substrate specificity, and fluorescent spectrum analyses in 100-mM Tris buffer (pH = 7.5), while pH stability experiments were performed in 100-mM Tris buffer at three different pH values (6.5, 7.5, and 8.5) at room temperature. […] protein at a concentration of 0.75 μM, various small molecule concentrations, 1 mM ATP, and 2.5 mM MgCl2 were used in the experiments. Fluorescent signals were detected using a Microplate Reader (Synergy H4, Bio Tek) at an excitation/emission wavelength of 460 nm/510 nm or 480 nm/510 nm. The dose-response curve was determined immediately after the addition of the analyte. The total duration of the measurement was 15 min, with readings taken at one-minute intervals. The dose-response curve was plotted using the fluorescence values obtained after achieving stability in the fluorescence signal. The dose-response curves were fitted using the logistic model LOGISTIC5 available in Origin 2021, which could provide a more adequate fit to asymmetric dose-response data[62],[63]. Excitation spectra were scanned from 300 to 540 nm with a step size of 5 nm, and the emission wavelength was set to 560 nm. Emission spectra were scanned from 470 to 700 nm with a step size of 5 nm, and the excitation wavelength was set to 450 nm. The thermal stability of […] was analyzed using the UNcle multifunctional protein stability analysis system. Measurements were performed in 20 mM MOPS buffer with 2 mM DTT at a sample concentration of 1 mg/mL. Absolute fluorescence quantum yields were measured using an absolute photoluminescence quantum yield spectrometer (FS5, Edinburgh). […]
Supplementary Fig. 2 Dose–response curves and fl uorescen ce spectr ums of GEC FINDERs. a and c, Dose– re spons e curves of puri fi ed GECF INDE R-P he1 and 2 with increas ing concen tra tions of phenylalanine (1 nM to 100 μM). The norm alized ΔF/F 0 value increas ed aft er phenylalanine binding (4 60 nm excita tion) . b and d, The fl uore scen ce spect ra of GECF IN DER-P he1 and 2 changed as the phe nylalanine concen tra tion incre ased fro m 1 nM to 100 μM. e and g, Dose–re spon se curv es of puri fied GECF IN DER-Il e1 and 2 with increas ing concen tra tio ns of isoleucine (50 nM to 10 mM). The norm alized ΔF/F 0 value increas ed aft er isoleucine binding (4 80 nm excita tion) . f and h, The fl uore scen ce spect ra of GECF INDE R-Il e1 and 2 change d as the isoleucine concen tration increas ed fro m 0.5 μM to 10 mM. i, Dose–re spon se curv e of puri fi ed GECF INDE R-H is1 with increas ing concen tra tio ns of histid ine (5 nM to 1 mM). The Norm alized ΔF/F 0 increas ed aft er histidine binding (480 nm excita tion). j, The fl uore scen ce spect ra of GECFIN DER-H is1 changed as the histid ine concen tra tion increas ed fro m 5 nM to 1 mM. k, Diffe re nce in fl uore scen ce intensity of GECF INDE R-b enzoic aci d in the pre sence of 10 µM benzoic aci d compare d to the cont ro l (0 µM benzoic aci d). […] (n=3 biological ly independent samples). *p ≤ 0.05, ***p ≤ 0.001, ****p ≤ 0.0001, and n.s. indicat ed no signifi can t diffe re nce (S tude nt’s two-t aile d t-t est). Source data are provi ded as a Source Data file . […]

N[C@@H](Cc1cnc[nH]1)C(=O)O [His]
Dose-response, AVE of Repeat 1-3 (Fig. 3 k) (His 0.005 μM): -4.366e-17 | Dose-response, AVE of Repeat 1-3 (Fig. 3 k) (His 0.01 μM): 0.01906 | Dose-response, AVE of Repeat 1-3 (Fig. 3 k) (His 0.05 μM): 0.01899 | Dose-response, AVE of Repeat 1-3 (Fig. 3 k) (His 0.5 μM): 0.05174 | Dose-response, AVE of Repeat 1-3 (Fig. 3 k) (His 5 μM): 0.1739 | Dose-response, AVE of Repeat 1-3 (Fig. 3 k) (His 10 μM): 0.234 | Dose-response, AVE of Repeat 1-3 (Fig. 3 k) (His 25 μM): 0.2903 | Dose-response, AVE of Repeat 1-3 (Fig. 3 k) (His 50 μM): 0.3383 | Dose-response, AVE of Repeat 1-3 (Fig. 3 k) (His 100 μM): 0.377 | Dose-response, AVE of Repeat 1-3 (Fig. 3 k) (His 500 μM): 0.4545 | Dose-response, AVE of Repeat 1-3 (Fig. 3 k) (His 750 μM): 0.4382 | Dose-response, AVE of Repeat 1-3 (Fig. 3 k) (His 1000 μM): 0.4348 | fluorescence intensity, AVE of 3 repeats (Supplementary Fig. 3 h, His 0.75 mM): 10877
